How the values were obtained:
Type in all cases: in vivo
Chilo suppressalis = experiment: Example B1: activity against Chilo suppressalis (striped rice stemborer), artificial diet
Summary of the method: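 Artificial diet treated with aqueous dilutions of DMSO stocks (10'000 ppm stock), dried, then infested with 6-8 L2 larvae per well. Mortality, anti-feeding and growth inhibition scored against untreated samples 6 days after infestation. Control counted when any category exceeds untreated.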

Diabrotica balteata [1] = experiment: Example B2: activity against Diabrotica balteata (corn root worm), maize sprouts; conditions: 96 h, L2 larvae, 4 days after infestation, read-out: effect in at least one of the two categories (mortality or growth inhibition)
Summary of the method: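 Maize sprouts on agar were sprayed with aqueous test solutions made from 10′000 ppm DMSO stocks, dried, then infested with 6–10 L2 larvae per well. Mortality and growth inhibition were scored against untreated samples 4 days after infestation, at an application rate of 200 ppm.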

Euschistus heros = experiment: Example B3: activity against Euschistus heros (neotropical brown stink bug), soybean leaves
Summary of the method: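 Soybean leaves on agar sprayed with aqueous dilutions of DMSO stock (10′000 ppm), dried, then infested with N2 nymphs. Mortality and growth inhibition scored against untreated samples 5 days after infestation; application rate 200 ppm.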

Myzus persicae = experiment: Example B4: activity against Myzus persicae (green peach aphid), intrinsic activity; conditions: 120 h, test rate 12 ppm, 5 days after infestation
Summary of the method: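 Compounds from 10′000 ppm DMSO stocks were mixed into sucrose solution in 24-well plates sealed with Parafilm. Aphid-infested pea seedlings were set on the membrane and the plate inverted so aphids fed through it. Mortality scored 5 days after infestation.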

Plutella xylostella [2] = experiment: Example B5: activity against Plutella xylostella (diamond back moth), artificial diet, eggs; conditions: 192 h, 8 days after infestation, read-out: effect in at least one of the two categories (mortality or growth inhibition)
Summary of the method: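 Artificial diet in 24-well plates was treated with aqueous dilutions of DMSO stocks, dried, then infested with Plutella eggs. Mortality and growth inhibition were scored against untreated samples 8 days after infestation; application rate 200 ppm.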

Spodoptera littoralis = experiment: Example B6: activity against Spodoptera littoralis (Egyptian cotton leaf worm), cotton leaf discs; conditions: foliar
Summary of the method: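 Leaf discs on agar; spray, aqueous dilution of 10′000 ppm DMSO stock; dry; 5 L1 larvae/disc. Read at 3 d post-infestation: mortality, antifeedant, growth inhibition vs untreated. Control = ≥1 category above untreated.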

Tetranychus urticae = experiment: Example B8: activity against Tetranychus urticae (two-spotted spider mite), bean leaf discs; conditions: foliar, 192 h, mixed population (mobile stages), 8 days after infestation
Experimental: Bean leaf discs on agar in 24-well microtiter plates were sprayed with aqueous test solutions prepared from 10′000 ppm DMSO stock solutions. After drying the leaf discs were infested with a mite population of mixed ages. The samples were assessed for mortality on mixed population (mobile stages) 8 days after infestation.

Pseudoplusia includens = experiment: Example B9: Pseudoplusia includens (soybean looper), larvicide, feeding/contact, soybean plants; conditions: Chrysodeixis includens
Summary of the method: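 Soybean plants sprayed, cut and held in dishes on wet filter paper; infested 1 d after application with 5 L2 larvae. Mortality and growth inhibition assessed 5 days after infestation; tested at 50 ppm.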

[3] = system: Carpocapsa (Cydia) pomonella; experiment: Example B10: Carpocapsa (Cydia) pomonella (codling moth), larvicide, feeding/contact, diet cubes; conditions: 336 h, L1 larvae, 14 days after infestation, read-out: effect in at least one of the two categories (mortality or growth inhibition)
Experimental: Diet cubes coated with paraffin were sprayed with diluted test solutions in an application chamber. After drying off the treated cubes (10 replicates) were infested with 1 L1 larvae. Samples were incubated at 26-27° C. and checked 14 days after infestation for mortality and growth inhibition. The following compounds gave an effect of at least 80% in at least one of the two categories (mortality or growth inhibition) at an application rate of 50 ppm: […]

Diabrotica balteata [4] = experiment: B14a: Diabrotica balteata (corn root worm), larvicide, feeding/contact, corn seedlings
Text: (§1) Activity of compounds P5, P17 and P21 according to the preparatory examples and of a compound from WO 21/083936 against Spodoptera littoralis (Example B6 above), Chilo suppressalis (Example B1 above), Diabrotica balteata (Example B14a below), Plutella xylostella (Example B14b below) and Pseudoplusia includens (Example B9 above) is summarized in Table B14. B14a: Diabrotica balteata (Corn root worm). Larvicide, feeding/contact 3 Corn seedlings were placed on wetted filter paper in plastic cups, and 3 ml of diluted test solutions were pipetted onto them. The cups were infested with 10 L2 larvae and checked for mortality and growth regulation 5 days after treatment. B14b: Plutella xylostella (Diamond back moth). Larvicide L3, feeding/contact Chinese cabbage plants were sprayed with diluted test solutions in an application chamber. Cut off leaves were placed into petri dishes with wetted filter paper and infested 1 day after application with 10 L3 larvae. Samples were assessed 4 days after infestation for mortality and growth regulation.

Plutella xylostella [5] = experiment: B14b: Plutella xylostella (diamond back moth), larvicide L3, feeding/contact, Chinese cabbage
Text: as §1

In the case of `C[C@H](Nc1ncnc2c(Cl)cc(C(F)(F)F)cc12)c1ncnn1-c1cc(C(N)=O)ncn1` [Compound P17, 6-[5-[(1S)-1-[[8-chloro-6-(trifluoromethyl)quinazolin-4-yl]amino]ethyl]-1,2,4-triazol-1-yl]pyrimidine-4-carboxamide], the mortality at 3.12 ppm (Chilo suppressalis; 3.12 ppm) is reported as 40%, the percent control (mortality, anti-feedant effect or growth inhibition) at 200 ppm (Chilo suppressalis; 144 h, 200 ppm, L2 larvae, 6 days after infestation, read-out: control (at least one of mortality, anti-feedant effect, growth inhibition)) is reported as no less than 80% and the percent effect (mortality or growth inhibition) at 200 ppm (Diabrotica balteata [1]) is reported as no less than 80%. For the same compound, the mortality at 200 ppm (Euschistus heros) was 80%, the percent effect (mortality or growth inhibition) at 200 ppm (Euschistus heros; 120 h, N2 nymphs, 5 days after infestation, read-out: effect in at least one of the two categories (mortality or growth inhibition)) was no less than 80% and the mortality at 12 ppm (Myzus persicae) was no less than 80%. For the same compound, the percent effect (mortality or growth inhibition) at 200 ppm (Plutella xylostella [2]) was no less than 80%, the mortality at 3.12 ppm (Spodoptera littoralis; 3.12 ppm) was 100% and the percent control (mortality, anti-feedant effect or growth inhibition) at 200 ppm (Spodoptera littoralis; 72 h, 200 ppm, L1 larvae, 3 days after infestation, read-out: control (at least one of mortality, anti-feedant effect, growth inhibition)) was no less than 80%. It also gave a mortality at 200 ppm (Tetranychus urticae) of no less than 80%, a percent effect (mortality or growth inhibition) at 50 ppm (Pseudoplusia includens; 120 h, 50 ppm, L2 larvae, 5 days after infestation, read-out: effect in at least one of the two categories (mortality or growth inhibition)) of no less than 80% and a mortality at 3 ppm (Pseudoplusia includens; Pseudoplusia includens, 3 ppm) of 80%. It also gave a mortality at 12.5 ppm (Pseudoplusia includens; Pseudoplusia includens, 12.5 ppm) of 100%, a percent effect (mortality or growth inhibition) at 50 ppm [3] of no less than 80% and a mortality at 0.8 ppm (Diabrotica balteata [4]) of 100%. It also gave a mortality at 0.8 ppm (Plutella xylostella [5]; 0.8 ppm) of 100% and a mortality at 3 ppm (Plutella xylostella [5]; 3 ppm) of 100%.

— patent US20260132125A1, “PESTICIDALLY ACTIVE FUSED BICYCLIC HETEROAROMATIC COMPOUNDS” (priority 2022, published 2026)
